For orientation: Kd means the free concentration of one partner at which half of the binding sites on the other are occupied at equilibrium, for simple one-to-one binding. Lower therefore signals a tighter complex.

A value given as a limit tells only on which side of the number the result lay.

For one assay, the target named is BRD2 (Homo sapiens, UniProt P25440). Description: Binding affinity to BET and STAT family members.
For a further assay, the target named is STAT4 (Homo sapiens, UniProt Q14765). The assay is described as follows: Binding affinity to BET and STAT family members.
STAT4, sequence (Q14765 whole entry): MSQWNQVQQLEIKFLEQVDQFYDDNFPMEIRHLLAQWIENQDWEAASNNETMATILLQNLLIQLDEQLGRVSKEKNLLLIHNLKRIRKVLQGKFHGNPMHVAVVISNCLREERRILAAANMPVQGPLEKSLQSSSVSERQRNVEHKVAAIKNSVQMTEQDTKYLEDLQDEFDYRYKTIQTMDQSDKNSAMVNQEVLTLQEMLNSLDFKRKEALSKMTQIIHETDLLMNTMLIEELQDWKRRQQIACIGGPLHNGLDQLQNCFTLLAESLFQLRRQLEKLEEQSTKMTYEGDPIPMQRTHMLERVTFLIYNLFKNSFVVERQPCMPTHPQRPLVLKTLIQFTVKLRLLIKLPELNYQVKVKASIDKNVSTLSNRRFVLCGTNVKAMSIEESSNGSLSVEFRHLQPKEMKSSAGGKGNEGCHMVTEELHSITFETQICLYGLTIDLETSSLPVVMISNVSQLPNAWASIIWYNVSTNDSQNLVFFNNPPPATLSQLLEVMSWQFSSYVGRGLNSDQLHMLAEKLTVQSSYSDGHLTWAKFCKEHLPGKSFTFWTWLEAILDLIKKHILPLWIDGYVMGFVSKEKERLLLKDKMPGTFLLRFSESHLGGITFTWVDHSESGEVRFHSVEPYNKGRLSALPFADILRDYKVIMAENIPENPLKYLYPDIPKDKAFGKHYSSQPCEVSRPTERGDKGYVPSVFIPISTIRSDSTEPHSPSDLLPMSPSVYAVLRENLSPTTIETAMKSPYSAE
The target in a further assay is STAT5a (Homo sapiens, UniProt P42229). Description: Binding affinity to BET and STAT family members.
STAT5a, sequence (P42229 whole entry): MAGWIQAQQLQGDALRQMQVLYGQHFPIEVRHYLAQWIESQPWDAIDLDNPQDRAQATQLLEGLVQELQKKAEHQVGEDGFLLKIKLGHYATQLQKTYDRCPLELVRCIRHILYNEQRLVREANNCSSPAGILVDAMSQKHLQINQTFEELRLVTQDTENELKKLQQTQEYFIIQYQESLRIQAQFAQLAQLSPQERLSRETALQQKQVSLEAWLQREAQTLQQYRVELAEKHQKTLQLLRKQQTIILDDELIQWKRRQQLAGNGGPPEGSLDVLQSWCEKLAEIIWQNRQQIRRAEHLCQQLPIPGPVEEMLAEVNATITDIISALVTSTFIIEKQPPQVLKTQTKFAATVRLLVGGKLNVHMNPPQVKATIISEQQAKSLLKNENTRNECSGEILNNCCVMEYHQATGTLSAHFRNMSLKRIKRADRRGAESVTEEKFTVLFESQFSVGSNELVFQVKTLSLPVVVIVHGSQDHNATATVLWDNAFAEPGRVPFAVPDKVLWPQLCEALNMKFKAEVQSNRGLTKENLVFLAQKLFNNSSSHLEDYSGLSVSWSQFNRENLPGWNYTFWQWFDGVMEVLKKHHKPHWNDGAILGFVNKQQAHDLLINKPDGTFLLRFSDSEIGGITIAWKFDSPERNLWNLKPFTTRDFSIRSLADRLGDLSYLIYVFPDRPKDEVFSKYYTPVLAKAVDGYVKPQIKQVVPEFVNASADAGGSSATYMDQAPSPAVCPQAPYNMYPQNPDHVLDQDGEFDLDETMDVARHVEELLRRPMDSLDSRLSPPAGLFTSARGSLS
A further assay addresses STAT5b (Homo sapiens, UniProt P51692). Description: Binding affinity to BET and STAT family members.
Another assay has as its system PBMCs. The assay is described as follows: MTT cytotoxicity assay. It counts as cell-based. As to conditions: PBMC, 48 h treatment, read-out: IC50 (μM) ± SD PBMCs. The procedure: (§1) The effect of hit compounds on cytotoxicity was determined as previously reported ([Ding et al., 2020]). In brief, cells treated with the tested compounds were added with MTT reagent to form formazan crystals, and then the optical density (OD) values at 570 nm were determined after the crystals were dissolved in DMSO. […] Next, the values of IC50 of the selected compounds against more RCC cell lines were determined. The 5 × 10^3 cells in 100 μL culture medium were injected into each well of a 96-well plate and cultured overnight. Add different concentrations of compounds and incubate for 48 h. Then 100 μL of MTT (0.5 mg/mL) solution was added to the 96-well plate and maintained at 37°C for 4 h. Finally, 200 μL of DMSO was added and shaken for 10 min. The OD values at 570 nm were determined by a Synergy 4 microplate reader.
(In general: Tetrazolium assays rely on reduction of a dye to a coloured formazan, in cell work by metabolically active cells.)

In another assay the test system is shBRD4-CAKI-2 cells. The assay is described as follows: MTT assay on shRNA-transfected CAKI-2 cells. It counts as cell-based. As to conditions: Homo sapiens, CAKI-2 stably expressing BRD4 shRNA, 48 h, read-out: IC50 (μM) ± SD shBRD4-CAKI-2. As to the method: as §1
(§2) ^aIC50 (μM) is the concentration of compound needed to reduce cell growth by 50% following 48 h cell treatment with BST-4. shControl-CAKI-2: CAKI-2 cells stably expressing Control shRNA; shBRD4-CAKI-2 cells: CAKI-2 cells stably expressing BRD4 shRNA; shSTAT3-CAKI-2 cells: CAKI-2 cells stably expressing STAT3 shRNA; shBRD4/STAT3-CAKI-2 cells: CAKI-2 cells stably expressing BRD4/STAT3 shRNA. Each experiment was performed at least three times. Data are presented as the mean ± SD.

The subject of assay [1] is shBRD4/STAT3-CAKI-2 cells. Description: MTT assay on shRNA-transfected CAKI-2 cells. It counts as cell-based. As to conditions: Homo sapiens, CAKI-2 stably expressing BRD4/STAT3 shRNA, 48 h, read-out: IC50 (μM) ± SD shBRD4/STAT3-CAKI-2. The procedure: as §1, §2
A further assay concerns shControl-CAKI-2 cells. Description: MTT assay on shRNA-transfected CAKI-2 cells. It counts as cell-based. As to conditions: Homo sapiens, CAKI-2 stably expressing Control shRNA, 48 h, read-out: IC50 (μM) ± SD shControl-CAKI-2. The procedure:
as §1, §2

The next assay has as its system shSTAT3-CAKI-2 cells. Description: MTT assay on shRNA-transfected CAKI-2 cells. It counts as cell-based. As to conditions: Homo sapiens, CAKI-2 stably expressing STAT3 shRNA, 48 h, read-out: IC50 (μM) ± SD shSTAT3-CAKI-2. As to the method:
as §1, §2

The subject of the next assay is STAT3 phosphorylation. Description: Western blot of phosphorylated STAT3 in CAKI-2 cells. It counts as cell-based, human. As to conditions: 100 nM, 24 h. As to the method: For the assessment of protein expression levels, Western blot analysis was conducted following a standardized protocol ([Zhou et al., 2022]). The CAKI-2 cells were initially rinsed with PBS to remove any residual culture medium. Subsequently, cells were lysed using a RIPA buffer supplemented with 1 mM phenylmethylsulfonyl fluoride (PMSF), and the lysate was incubated on ice for a duration of 1 h. The lysate was centrifuged at a speed of 13,000 rpm for 30 min at 4°C. Protein concentrations were quantified using a BCA protein assay kit (Beyotime, Shanghai, China), ensuring equal protein loading for each sample. Samples were then resolved by SDS-PAGE and transferred onto a polyvinylidene difluoride (PVDF) membrane. Subsequently, the membrane was blocked with 3% BSA in PBS at room temperature for 2 h and incubated overnight with the corresponding antibody at 4°C. After washing to remove unbound primary antibodies, the membrane was incubated with horseradish peroxidase (HRP)-conjugated secondary antibodies for a period of 1 h at room temperature. The specific protein bands were visualized using ECL detection system (Tanon, Shanghai, China), and the band intensities were quantified using ImageJ software.
(A western blot detects proteins with antibodies after separation by electrophoresis.)

The next assay relates to CAKI-2 xenograft tumors. Description: CAKI-2 cell-derived xenograft model. It counts as in vivo, BALB/c nude mice. As to conditions: 10 mg/kg intraperitoneally every 12 h, nude mice. The procedure: To further investigate the in vivo effects of BST-4, 6–8 weeks male BALB/c nude mice were obtained by Changzhou Cavens Experimental Animal Co., Ltd. (Changzhou, China). The mice were acclimatized to the laboratory environment for a week before the experiment. The housing conditions were maintained at a temperature of 22°C ± 2°C, a relative humidity of 50%–60%, and a 12-h light/dark cycle. 0.1 mL of CAKI-2cell suspension (1 × 10⁶ cells) was subcutaneously injected into the right flank of each mouse. […] The vehicle group was injected with a vehicle solution consisting of 5% DMSO and PBS. The tumor volume of mice was measured every 2 days and calculated according to the formula: (c × c × d)/2, where c and d represent the minimum diameter and maximum diameter, respectively. All animal experiments were performed and approved by the Ethics Committee of China Pharmaceutical University.

The target of another assay is BRD4 (Homo sapiens, UniProt O60885). Description: Microscale thermophoresis (MST) assay. It counts as binding. Also noted: purchased Abcam.

STAT5b, sequence (P51692 whole entry): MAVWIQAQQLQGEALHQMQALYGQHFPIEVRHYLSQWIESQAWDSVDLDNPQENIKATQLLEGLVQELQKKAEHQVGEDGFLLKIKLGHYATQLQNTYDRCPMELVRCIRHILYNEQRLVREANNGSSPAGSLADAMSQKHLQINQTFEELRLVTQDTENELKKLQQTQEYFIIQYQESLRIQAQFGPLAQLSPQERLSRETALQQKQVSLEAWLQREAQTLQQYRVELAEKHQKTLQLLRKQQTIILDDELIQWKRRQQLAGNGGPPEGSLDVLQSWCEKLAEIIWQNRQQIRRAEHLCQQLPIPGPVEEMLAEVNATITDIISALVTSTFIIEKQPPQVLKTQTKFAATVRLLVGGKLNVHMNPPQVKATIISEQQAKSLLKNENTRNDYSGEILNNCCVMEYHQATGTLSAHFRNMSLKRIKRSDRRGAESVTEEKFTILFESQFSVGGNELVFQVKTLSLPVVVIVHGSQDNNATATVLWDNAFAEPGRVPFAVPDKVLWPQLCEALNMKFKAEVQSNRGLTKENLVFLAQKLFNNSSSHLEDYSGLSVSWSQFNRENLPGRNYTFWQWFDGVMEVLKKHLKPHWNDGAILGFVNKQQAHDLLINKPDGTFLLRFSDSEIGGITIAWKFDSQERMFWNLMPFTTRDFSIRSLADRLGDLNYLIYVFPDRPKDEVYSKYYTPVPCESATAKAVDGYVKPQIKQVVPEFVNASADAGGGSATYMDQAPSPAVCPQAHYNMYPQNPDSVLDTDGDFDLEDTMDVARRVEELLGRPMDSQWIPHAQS
BRD2, sequence (P25440 whole entry): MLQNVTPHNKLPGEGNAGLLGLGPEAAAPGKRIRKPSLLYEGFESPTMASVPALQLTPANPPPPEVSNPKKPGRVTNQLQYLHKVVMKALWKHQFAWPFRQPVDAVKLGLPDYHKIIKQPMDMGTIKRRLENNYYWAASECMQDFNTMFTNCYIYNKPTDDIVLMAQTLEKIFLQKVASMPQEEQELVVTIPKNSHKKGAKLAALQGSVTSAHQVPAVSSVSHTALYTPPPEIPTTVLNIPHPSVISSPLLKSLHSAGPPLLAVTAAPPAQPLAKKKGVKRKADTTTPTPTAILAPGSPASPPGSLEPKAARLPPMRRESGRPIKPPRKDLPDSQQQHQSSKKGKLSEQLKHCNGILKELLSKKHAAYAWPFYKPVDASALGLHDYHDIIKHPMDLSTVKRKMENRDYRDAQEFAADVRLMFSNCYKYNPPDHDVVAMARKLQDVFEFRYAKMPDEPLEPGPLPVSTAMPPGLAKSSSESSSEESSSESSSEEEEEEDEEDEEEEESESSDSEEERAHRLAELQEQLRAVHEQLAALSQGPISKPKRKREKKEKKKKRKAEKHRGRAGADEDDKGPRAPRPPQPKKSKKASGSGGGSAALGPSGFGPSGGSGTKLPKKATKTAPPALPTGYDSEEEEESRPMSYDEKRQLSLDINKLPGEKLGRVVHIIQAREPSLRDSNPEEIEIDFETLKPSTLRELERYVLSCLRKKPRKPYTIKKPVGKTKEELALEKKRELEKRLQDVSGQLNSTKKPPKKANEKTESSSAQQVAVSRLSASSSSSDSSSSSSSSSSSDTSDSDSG

In the case of `CCS(=O)(=O)Cc1cnc(Oc2c(F)cc(F)cc2OCCCCOc2ccc(/C=C/c3cc(OC)cc(OC)c3)cc2)c(-c2cc(C)c3c(=O)[nH]ccn23)c1` [BST-4], the Kd at BRD2 was above 10 µM; on STAT4 it was above 10 µM; on STAT5a, above 10 µM; at STAT5b, above 10 µM; at BRD4 (MST), 0.00146 ± 7e-05 µM. Further, the IC50 in the assay with PBMCs is above 10 µM; in the assay with shBRD4-CAKI-2 cells, 5.09 ± 0.27 µM; in [1], above 10 µM; in the assay on shControl-CAKI-2 cells it was 0.76 ± 0.05 µM; in the assay with shSTAT3-CAKI-2 cells it was 3.48 ± 0.21 µM. The “STAT3 phosphorylation in CAKI-2 cells” value with STAT3 phosphorylation is listed as “significantly decreased”. Also, in the assay with CAKI-2 xenograft tumors, the “tumor growth (tumor volume) in CAKI-2 xenograft” value is “significantly inhibited tumor growth”. The “BRD4 binding affinity relative to RVX-208” value at BRD4 (Kd ratio vs RVX-208, MST) was found to be 17 fold.

The values above are taken from PMC11897524 (Frontiers in Pharmacology, 2025).
